Data: patent US8445492B2, “Method for inhibiting growth of cancer cells and cell telomere and diseases of cell proliferation by using heteroannelated anthraquinone derivative compounds” (National Defense Medical Center, priority 2008, dated 2013)
Read-outs that look alike come from different tables or passages of the source.

How the values were obtained:
[1] = system: NCI-H522; test: cells; settings: Homo sapiens, NCI-H522
[2] = system: LOX IMV1; test: in vitro test at 1.0×10^−5 M, Skin cancer cell; type: cell-based; settings: 1.0×10^−5 molal concentration (M)
[3] = system: DU-145
[4] = system: HOP-92
[5] = system: NCI-H23; test: cells; settings: Homo sapiens, NCI-H23
[6] = system: NCI-H226; test: cells; settings: Homo sapiens, NCI-H226
[7] = system: HOP-92; test: cells; settings: Homo sapiens, HOP-92
[8] = system: NCI-H460; test: cells; settings: Homo sapiens, NCI-H460
[9] = system: HL-60(TB); test: cells; settings: Homo sapiens, HL-60
[10] = system: A549/ATCC
[11] = system: HOP-62; test: cells; settings: Homo sapiens, HOP-62
[12] = system: CCRF-CEM; test: cells; settings: Homo sapiens
[13] = system: HOP-62
[14] = system: NCI-H460
[15] = system: RPMI-8226; test: cells; settings: Homo sapiens, RPMI-8226
[16] = system: CCRF-CEM
[17] = system: DU-145; test: cells; settings: Homo sapiens, DU-145
[18] = system: NCI-H23
[19] = system: RPMI-8226
[20] = system: A549/ATCC; test: cells; settings: Homo sapiens, A549
[21] = system: K-562; test: cells; settings: Homo sapiens, K562
[22] = system: HS 578T; test: in vitro test at 1.0×10^−5 M, Breast cancer cell; type: cell-based; settings: 1.0×10^−5 molal concentration (M)
[23] = system: HL-60(TB)
[24] = system: K-562
[25] = system: PC-3
[26] = system: HOP-62; test: in vitro test at 1.0×10^−5 M, Non-small cell lung cancer cell; type: cell-based; settings: 1.0×10^−5 molal concentration (M)
[27] = system: MOLT-4
[28] = system: EKVX; test: cells; settings: Homo sapiens
[29] = system: NCI-H226
[30] = system: HCC-2998; test: in vitro test at 1.0×10^−5 M, Colorectal cancer cell; type: cell-based; settings: 1.0×10^−5 molal concentration (M)
[31] = system: different cancer cell lines; test: in vitro test at 1.0×10^−5 M, summary over the cell lines; type: cell-based; design: unit not given here; settings: 1.0×10^−5 molal concentration (M)

CCc1nc2ccc3c(c2[nH]1)C(=O)c1ccccc1C3=O [No. 4, 2-Ethyl-1(3)H-anthra[1,2-d]imidazole-6,11-dione]
GI50 [1]: 15.4 µM | inhibition effect on cancer cell line (Table 2 value) [2]: 39.98 | TGI ([3]; DU-145): >1.00E−4 | Percent Growth ([3]; Log10 Concentration −4.0): 24% | Percent Growth ([3]; Log10 Concentration −5.0): 37% | Percent Growth ([3]; Log10 Concentration −6.0): 88% | Percent Growth ([3]; Log10 Concentration −7.0): 98% | Percent Growth ([3]; Log10 Concentration −8.0): 98% | TGI ([4]; HOP-92): >1.00E−4 | Percent Growth ([4]; Log10 Concentration −4.0): 23% | Percent Growth ([4]; Log10 Concentration −5.0): 48% | Percent Growth ([4]; Log10 Concentration −6.0): 64% | Percent Growth ([4]; Log10 Concentration −7.0): 80% | Percent Growth ([4]; Log10 Concentration −8.0): 93% | GI50 [5]: 9.17 µM | GI50 [6]: 20.8 µM | GI50 [7]: 7.38 µM | GI50 [8]: 3.07 µM | GI50 [9]: 7.53 µM | TGI ([10]; A549/ATCC): >1.00E−4 | Percent Growth ([10]; Log10 Concentration −4.0): 17% | Percent Growth ([10]; Log10 Concentration −5.0): 60% | Percent Growth ([10]; Log10 Concentration −6.0): 97% | Percent Growth ([10]; Log10 Concentration −7.0): 100% | Percent Growth ([10]; Log10 Concentration −8.0): 91% | GI50 [11]: 44.2 µM | GI50 [12]: 10.9 µM | TGI ([13]; HOP-62): >1.00E−4 | Percent Growth ([13]; Log10 Concentration −4.0): 38% | Percent Growth ([13]; Log10 Concentration −5.0): 72% | Percent Growth ([13]; Log10 Concentration −6.0): 87% | Percent Growth ([13]; Log10 Concentration −7.0): 94% | Percent Growth ([13]; Log10 Concentration −8.0): 90% | Percent Growth ([14]; Log10 Concentration −4.0): 2% | Percent Growth ([14]; Log10 Concentration −5.0): 25% | Percent Growth ([14]; Log10 Concentration −6.0): 74% | Percent Growth ([14]; Log10 Concentration −7.0): 82% | Percent Growth ([14]; Log10 Concentration −8.0): 84% | TGI ([14]; NCI-H460): >1.00E−4 | GI50 [15]: 2.42 µM | TGI ([16]; CCRF-CEM): >1.00E−4 | Percent Growth ([16]; Log10 Concentration −4.0): 15% | Percent Growth ([16]; Log10 Concentration −5.0): 51% | Percent Growth ([16]; Log10 Concentration −6.0): 95% | Percent Growth ([16]; Log10 Concentration −7.0): 94% | Percent Growth ([16]; Log10 Concentration −8.0): 103% | GI50 [17]: 5.62 µM | Percent Growth ([18]; Log10 Concentration −4.0): 21% | Percent Growth ([18]; Log10 Concentration −5.0): 49% | Percent Growth ([18]; Log10 Concentration −6.0): 74% | Percent Growth ([18]; Log10 Concentration −7.0): 88% | Percent Growth ([18]; Log10 Concentration −8.0): 92% | TGI ([18]; NCI-H23): >1.00E−4 | Percent Growth ([19]; Log10 Concentration −4.0): −12% | Percent Growth ([19]; Log10 Concentration −5.0): 12% | Percent Growth ([19]; Log10 Concentration −6.0): 73% | Percent Growth ([19]; Log10 Concentration −7.0): 81% | Percent Growth ([19]; Log10 Concentration −8.0): 97% | TGI ([19]; RPMI-8226): 3.21E−5 | GI50 [20]: 17.1 µM | GI50 [21]: 78.3 µM | inhibition effect on cancer cell line (Table 2 value) [22]: −18.58 | TGI ([23]; HL-60(TB)): >1.00E−4 | Percent Growth ([23]; Log10 Concentration −4.0): 19% | Percent Growth ([23]; Log10 Concentration −5.0): 43% | Percent Growth ([23]; Log10 Concentration −6.0): 101% | Percent Growth ([23]; Log10 Concentration −7.0): 100% | Percent Growth ([23]; Log10 Concentration −8.0): 100% | TGI ([24]; K-562): >1.00E−4 | Percent Growth ([24]; Log10 Concentration −4.0): 48% | Percent Growth ([24]; Log10 Concentration −5.0): 63% | Percent Growth ([24]; Log10 Concentration −6.0): 87% | Percent Growth ([24]; Log10 Concentration −7.0): 92% | Percent Growth ([24]; Log10 Concentration −8.0): 94% | Percent Growth ([25]; Log10 Concentration −4.0): 29% | Percent Growth ([25]; Log10 Concentration −5.0): 54% | Percent Growth ([25]; Log10 Concentration −6.0): 93% | Percent Growth ([25]; Log10 Concentration −7.0): 100% | Percent Growth ([25]; Log10 Concentration −8.0): 96% | TGI ([25]; PC-3): >1.00E−4 | inhibition effect on cancer cell line (Table 2 value) [26]: 97.73 | Percent Growth ([27]; Log10 Concentration −4.0): −1% | Percent Growth ([27]; Log10 Concentration −5.0): 49% | Percent Growth ([27]; Log10 Concentration −6.0): 93% | Percent Growth ([27]; Log10 Concentration −7.0): 96% | Percent Growth ([27]; Log10 Concentration −8.0): 98% | TGI ([27]; MOLT-4): 9.51E−5 | GI50 [28]: 1.6 µM | Percent Growth ([29]; Log10 Concentration −4.0): 22% | Percent Growth ([29]; Log10 Concentration −5.0): 63% | Percent Growth ([29]; Log10 Concentration −6.0): 85% | Percent Growth ([29]; Log10 Concentration −7.0): 89% | Percent Growth ([29]; Log10 Concentration −8.0): 85% | TGI ([29]; NCI-H226): >1.00E−4 | inhibition effect on cancer cell line (Table 2 value) [30]: 67.67 | Mean [31]: 58.42
